Test results reported in ChEMBL document CHEMBL5058643, “Data for DCP probe BI-2081” (2022).

Legend:
Conditions in all cases: Compound concentration 10.0 uM
[1] = biological target: D(1A) dopamine receptor (Homo sapiens) (UniProt P21728)
[2] = biological target: Mu-type opioid receptor (Homo sapiens) (UniProt P35372)
[3] = biological target: Sodium-dependent serotonin transporter (Homo sapiens) (UniProt P31645)
Rattus norvegicus = organism: Rattus norvegicus
[4] = biological target: T1, Alpha-2A adrenergic receptor (Homo sapiens) (UniProt P08913)
T1 sequence (whole entry): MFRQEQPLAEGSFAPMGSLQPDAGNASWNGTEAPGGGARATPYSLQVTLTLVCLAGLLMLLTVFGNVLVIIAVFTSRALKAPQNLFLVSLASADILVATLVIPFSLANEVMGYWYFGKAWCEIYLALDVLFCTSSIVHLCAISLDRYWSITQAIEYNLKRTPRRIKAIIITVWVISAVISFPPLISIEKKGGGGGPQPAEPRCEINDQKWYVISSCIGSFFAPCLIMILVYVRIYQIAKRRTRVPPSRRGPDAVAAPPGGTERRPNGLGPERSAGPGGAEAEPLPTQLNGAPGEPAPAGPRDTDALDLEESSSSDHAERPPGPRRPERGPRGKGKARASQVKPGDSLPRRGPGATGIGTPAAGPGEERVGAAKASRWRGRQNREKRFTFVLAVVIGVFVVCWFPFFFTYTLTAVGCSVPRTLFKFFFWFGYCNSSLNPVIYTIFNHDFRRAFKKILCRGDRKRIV

[5] = biological target: Delta-type opioid receptor (Homo sapiens) (UniProt P41143)
[6] = biological target: Muscarinic acetylcholine receptor M5 (Homo sapiens) (UniProt P08912)
[7] = biological target: Beta-3 adrenergic receptor (Homo sapiens) (UniProt P13945)
[8] = biological target: T2, Muscarinic acetylcholine receptor M1 (Homo sapiens) (UniProt P11229)
T2 sequence (whole entry): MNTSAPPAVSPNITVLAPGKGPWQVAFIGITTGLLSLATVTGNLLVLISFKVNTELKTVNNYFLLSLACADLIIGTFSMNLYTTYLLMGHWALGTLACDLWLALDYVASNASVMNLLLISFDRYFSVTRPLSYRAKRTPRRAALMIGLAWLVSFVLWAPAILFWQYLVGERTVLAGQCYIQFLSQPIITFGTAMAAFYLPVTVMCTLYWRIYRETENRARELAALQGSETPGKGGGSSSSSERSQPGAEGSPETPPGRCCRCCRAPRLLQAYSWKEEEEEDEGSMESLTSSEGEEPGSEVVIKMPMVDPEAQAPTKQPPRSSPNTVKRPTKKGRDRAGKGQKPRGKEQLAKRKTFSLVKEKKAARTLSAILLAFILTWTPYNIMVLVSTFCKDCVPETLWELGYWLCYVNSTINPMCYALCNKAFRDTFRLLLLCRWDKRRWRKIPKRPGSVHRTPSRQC

[9] = biological target: T3, 5-hydroxytryptamine receptor 3A (Homo sapiens) (UniProt P46098)
T3 sequence (whole entry): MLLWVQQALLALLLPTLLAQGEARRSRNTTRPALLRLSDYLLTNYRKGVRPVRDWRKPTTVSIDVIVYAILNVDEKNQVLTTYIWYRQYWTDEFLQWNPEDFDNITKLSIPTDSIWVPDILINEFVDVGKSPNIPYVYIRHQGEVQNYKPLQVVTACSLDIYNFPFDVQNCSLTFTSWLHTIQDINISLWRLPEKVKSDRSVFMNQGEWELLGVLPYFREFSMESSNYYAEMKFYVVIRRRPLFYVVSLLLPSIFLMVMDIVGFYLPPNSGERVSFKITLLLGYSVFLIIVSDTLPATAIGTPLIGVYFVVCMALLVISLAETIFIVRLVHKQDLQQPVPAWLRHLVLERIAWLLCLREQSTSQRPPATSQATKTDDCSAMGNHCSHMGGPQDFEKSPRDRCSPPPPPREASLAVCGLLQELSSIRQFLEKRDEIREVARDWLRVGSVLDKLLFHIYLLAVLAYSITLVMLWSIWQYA

[10] = biological target: 5-hydroxytryptamine receptor 2C (Homo sapiens) (UniProt P28335)
[11] = biological target: 5-hydroxytryptamine receptor 7 (Homo sapiens) (UniProt P34969)
[12] = biological target: 5-hydroxytryptamine receptor 5A (Homo sapiens) (UniProt P47898)
[13] = biological target: Muscarinic acetylcholine receptor M3 (Homo sapiens, UniProt P20309)
[14] = biological target: T4, Alpha-2C adrenergic receptor (Homo sapiens) (UniProt P18825)
T4 sequence (whole entry): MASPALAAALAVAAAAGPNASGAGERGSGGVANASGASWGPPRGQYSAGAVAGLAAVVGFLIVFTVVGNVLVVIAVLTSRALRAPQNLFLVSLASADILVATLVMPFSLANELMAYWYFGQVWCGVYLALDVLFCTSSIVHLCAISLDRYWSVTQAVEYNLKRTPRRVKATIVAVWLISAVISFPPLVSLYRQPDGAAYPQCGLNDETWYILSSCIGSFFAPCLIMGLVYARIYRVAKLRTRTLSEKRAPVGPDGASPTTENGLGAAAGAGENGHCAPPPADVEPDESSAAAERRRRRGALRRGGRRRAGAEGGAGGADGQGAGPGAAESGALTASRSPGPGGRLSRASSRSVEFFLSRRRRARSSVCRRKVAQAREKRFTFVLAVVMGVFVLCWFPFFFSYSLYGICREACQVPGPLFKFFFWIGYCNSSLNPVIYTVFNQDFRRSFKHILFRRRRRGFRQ

Chain of Beta-3 adrenergic receptor (Homo sapiens) (P13945 whole entry, looked up): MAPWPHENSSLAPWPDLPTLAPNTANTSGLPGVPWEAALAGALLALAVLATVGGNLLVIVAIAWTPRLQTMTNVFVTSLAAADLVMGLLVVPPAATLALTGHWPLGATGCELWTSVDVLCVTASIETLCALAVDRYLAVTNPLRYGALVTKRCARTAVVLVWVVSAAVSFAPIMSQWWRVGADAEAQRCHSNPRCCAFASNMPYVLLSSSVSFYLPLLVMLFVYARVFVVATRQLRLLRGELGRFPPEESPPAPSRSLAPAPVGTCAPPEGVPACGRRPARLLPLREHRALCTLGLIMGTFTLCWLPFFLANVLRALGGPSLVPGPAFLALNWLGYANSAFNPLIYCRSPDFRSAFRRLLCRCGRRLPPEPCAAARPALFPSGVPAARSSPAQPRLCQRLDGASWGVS
Chain of Muscarinic acetylcholine receptor M5 (Homo sapiens) (P08912 whole entry): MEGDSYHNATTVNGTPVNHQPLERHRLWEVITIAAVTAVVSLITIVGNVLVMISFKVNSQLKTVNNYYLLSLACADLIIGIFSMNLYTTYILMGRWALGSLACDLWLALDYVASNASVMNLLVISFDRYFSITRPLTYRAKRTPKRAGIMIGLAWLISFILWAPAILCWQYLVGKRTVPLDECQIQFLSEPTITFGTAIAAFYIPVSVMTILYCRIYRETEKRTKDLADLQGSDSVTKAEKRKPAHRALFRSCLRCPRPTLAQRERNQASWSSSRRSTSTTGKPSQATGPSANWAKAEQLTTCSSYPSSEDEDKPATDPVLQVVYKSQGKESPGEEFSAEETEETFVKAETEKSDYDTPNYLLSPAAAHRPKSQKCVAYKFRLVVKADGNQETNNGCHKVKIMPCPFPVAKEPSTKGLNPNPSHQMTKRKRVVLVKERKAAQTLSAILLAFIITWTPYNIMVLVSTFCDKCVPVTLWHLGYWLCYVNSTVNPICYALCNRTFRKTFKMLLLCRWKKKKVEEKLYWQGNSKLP
Chain of Mu-type opioid receptor (Homo sapiens) (P35372 whole entry): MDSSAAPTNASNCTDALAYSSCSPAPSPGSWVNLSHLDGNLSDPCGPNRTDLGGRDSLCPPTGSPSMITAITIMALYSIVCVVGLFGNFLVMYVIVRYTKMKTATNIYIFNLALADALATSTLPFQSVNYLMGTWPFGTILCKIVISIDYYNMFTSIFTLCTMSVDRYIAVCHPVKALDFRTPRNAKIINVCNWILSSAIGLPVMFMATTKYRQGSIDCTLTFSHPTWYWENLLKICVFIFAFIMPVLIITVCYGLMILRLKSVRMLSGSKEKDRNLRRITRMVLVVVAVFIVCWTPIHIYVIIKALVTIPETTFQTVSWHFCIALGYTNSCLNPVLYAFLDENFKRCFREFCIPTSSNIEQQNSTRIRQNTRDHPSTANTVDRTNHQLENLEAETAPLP
Chain of Delta-type opioid receptor (Homo sapiens) (P41143 whole entry): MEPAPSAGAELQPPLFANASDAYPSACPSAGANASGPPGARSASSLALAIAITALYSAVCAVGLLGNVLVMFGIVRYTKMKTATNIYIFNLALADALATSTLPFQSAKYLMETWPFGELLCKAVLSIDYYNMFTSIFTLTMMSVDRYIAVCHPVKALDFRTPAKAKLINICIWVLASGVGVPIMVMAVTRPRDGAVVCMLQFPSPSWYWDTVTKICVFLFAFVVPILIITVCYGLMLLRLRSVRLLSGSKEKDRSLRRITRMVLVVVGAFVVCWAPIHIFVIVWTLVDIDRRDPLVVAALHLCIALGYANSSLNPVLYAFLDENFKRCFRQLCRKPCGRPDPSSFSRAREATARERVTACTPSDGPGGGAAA
Chain of 5-hydroxytryptamine receptor 5A (Homo sapiens) (P47898 whole entry): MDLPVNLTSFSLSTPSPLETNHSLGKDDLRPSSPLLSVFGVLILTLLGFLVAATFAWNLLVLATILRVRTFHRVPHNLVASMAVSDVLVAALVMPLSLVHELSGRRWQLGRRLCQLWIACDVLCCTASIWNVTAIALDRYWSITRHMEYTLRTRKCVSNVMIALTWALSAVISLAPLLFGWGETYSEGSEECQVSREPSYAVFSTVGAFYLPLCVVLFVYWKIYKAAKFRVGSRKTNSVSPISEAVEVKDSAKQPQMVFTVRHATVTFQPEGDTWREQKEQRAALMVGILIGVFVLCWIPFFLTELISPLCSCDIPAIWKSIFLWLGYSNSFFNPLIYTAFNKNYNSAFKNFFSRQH
Chain of Sodium-dependent serotonin transporter (Homo sapiens) (P31645 whole entry, looked up): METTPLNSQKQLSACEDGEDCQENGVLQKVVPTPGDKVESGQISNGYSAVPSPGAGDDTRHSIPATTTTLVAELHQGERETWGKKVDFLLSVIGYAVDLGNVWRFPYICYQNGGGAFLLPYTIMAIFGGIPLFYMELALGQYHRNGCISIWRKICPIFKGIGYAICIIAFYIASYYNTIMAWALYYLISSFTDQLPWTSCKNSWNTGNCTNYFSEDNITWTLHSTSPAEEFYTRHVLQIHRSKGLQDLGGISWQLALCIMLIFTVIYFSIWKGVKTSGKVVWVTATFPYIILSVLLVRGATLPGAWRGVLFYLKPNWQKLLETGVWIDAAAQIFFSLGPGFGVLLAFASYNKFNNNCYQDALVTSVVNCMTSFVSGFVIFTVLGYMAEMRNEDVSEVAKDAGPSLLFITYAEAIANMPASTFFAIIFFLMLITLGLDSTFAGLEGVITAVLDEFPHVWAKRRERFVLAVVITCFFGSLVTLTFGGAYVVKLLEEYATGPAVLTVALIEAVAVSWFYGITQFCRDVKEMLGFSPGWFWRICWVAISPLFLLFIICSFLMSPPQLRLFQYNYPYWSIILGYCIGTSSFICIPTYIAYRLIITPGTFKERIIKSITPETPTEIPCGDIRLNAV
Chain of D(1A) dopamine receptor (Homo sapiens) (P21728 whole entry): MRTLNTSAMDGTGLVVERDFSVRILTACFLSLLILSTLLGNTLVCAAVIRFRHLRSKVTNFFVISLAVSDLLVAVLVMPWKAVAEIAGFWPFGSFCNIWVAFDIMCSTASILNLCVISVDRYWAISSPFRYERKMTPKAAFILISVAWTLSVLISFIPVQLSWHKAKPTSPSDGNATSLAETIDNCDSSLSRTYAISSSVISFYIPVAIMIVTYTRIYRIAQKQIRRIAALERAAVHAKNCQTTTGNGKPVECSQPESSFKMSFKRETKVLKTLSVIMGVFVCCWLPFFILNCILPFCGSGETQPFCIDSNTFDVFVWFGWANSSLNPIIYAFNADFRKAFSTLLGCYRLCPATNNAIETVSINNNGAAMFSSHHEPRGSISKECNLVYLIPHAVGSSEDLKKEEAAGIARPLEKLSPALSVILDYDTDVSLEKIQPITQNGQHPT
Chain of 5-hydroxytryptamine receptor 2C (Homo sapiens) (P28335 whole entry): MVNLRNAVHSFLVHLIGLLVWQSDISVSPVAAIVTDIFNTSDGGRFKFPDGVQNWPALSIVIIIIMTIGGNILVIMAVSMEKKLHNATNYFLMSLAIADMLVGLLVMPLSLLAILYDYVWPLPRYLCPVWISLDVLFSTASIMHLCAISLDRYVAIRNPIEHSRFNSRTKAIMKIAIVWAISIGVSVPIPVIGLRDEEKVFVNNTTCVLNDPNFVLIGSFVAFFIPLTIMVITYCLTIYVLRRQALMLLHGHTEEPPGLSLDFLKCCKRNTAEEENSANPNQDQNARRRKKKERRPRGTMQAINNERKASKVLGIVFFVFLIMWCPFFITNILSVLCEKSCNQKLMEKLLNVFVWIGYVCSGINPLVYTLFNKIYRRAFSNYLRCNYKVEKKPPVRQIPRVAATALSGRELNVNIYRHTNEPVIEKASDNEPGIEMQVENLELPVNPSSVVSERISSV
Chain of 5-hydroxytryptamine receptor 7 (Homo sapiens) (P34969 whole entry): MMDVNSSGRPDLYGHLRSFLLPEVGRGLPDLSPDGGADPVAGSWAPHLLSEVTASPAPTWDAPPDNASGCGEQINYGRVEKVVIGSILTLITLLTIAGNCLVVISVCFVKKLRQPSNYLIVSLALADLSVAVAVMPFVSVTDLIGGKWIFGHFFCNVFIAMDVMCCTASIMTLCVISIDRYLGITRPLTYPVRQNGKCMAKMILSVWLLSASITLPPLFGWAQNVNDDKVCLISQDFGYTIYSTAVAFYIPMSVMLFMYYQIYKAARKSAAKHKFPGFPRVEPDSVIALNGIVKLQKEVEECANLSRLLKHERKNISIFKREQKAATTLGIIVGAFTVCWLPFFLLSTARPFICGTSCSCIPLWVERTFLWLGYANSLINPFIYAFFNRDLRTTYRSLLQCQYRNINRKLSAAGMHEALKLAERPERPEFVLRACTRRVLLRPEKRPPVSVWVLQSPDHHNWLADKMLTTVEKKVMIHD
Chain of Muscarinic acetylcholine receptor M3 (P20309 whole entry, looked up): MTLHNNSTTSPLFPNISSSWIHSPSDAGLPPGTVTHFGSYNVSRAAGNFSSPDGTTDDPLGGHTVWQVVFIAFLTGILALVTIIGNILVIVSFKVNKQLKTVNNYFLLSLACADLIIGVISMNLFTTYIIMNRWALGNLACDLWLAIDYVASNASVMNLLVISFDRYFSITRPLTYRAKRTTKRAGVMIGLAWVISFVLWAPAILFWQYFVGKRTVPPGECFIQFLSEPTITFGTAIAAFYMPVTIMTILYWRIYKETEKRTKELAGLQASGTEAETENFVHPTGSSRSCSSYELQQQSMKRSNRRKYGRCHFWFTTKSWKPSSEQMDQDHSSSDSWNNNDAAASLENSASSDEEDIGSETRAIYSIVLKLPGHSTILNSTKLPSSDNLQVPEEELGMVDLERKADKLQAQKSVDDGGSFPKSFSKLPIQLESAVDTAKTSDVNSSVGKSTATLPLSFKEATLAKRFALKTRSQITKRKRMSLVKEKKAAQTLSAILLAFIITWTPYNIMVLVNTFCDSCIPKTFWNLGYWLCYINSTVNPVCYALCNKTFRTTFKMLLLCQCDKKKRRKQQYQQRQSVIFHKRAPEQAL

inhibition [1] [%] | inhibition [2] [%] | inhibition [3] [%] | inhibition (Rattus norvegicus) [%] | inhibition [4] [%] | inhibition [5] [%] | inhibition [6] [%] | inhibition [7] [%] | inhibition [8] [%] | inhibition [9] [%] | inhibition [10] [%] | inhibition [11] [%] | inhibition [12] [%] | inhibition [13] [%] | inhibition [14] [%] | Structure (SMILES)
0.05 | 15.6 | 4.25 | 40.4 | 16.6 | 24.4 | -4.38 | 20.2 | -3.94 | 9.64 | -4.94 | 13 | 5.48 | 68.2 | 14.5 | Cc1cc(OCCC(C)(C)O)cc(C)c1-c1ccc(F)c2c1CC[C@H]2Oc1ccc2c(c1)OC[C@H]2CC(=O)O
-9.32 | 13.7 | -1.62 | 36.1 | 5.14 | 20.8 | -1.63 | 11.6 | 7.17 | 1.85 | 2.87 | 3.29 | 9.98 | -1.57 | 5.58 | COCCCS(=O)(=O)c1cc(C)c(-c2ccc(F)c3c2CC[C@H]3Oc2ccc3c(c2)OC[C@H]3CC(=O)O)c(C)c1
